According to US20060009433A1, “Neuroprotective spirostenol pharmaceutical compositions” (priority 2003, published 2006):

Key:
[1] = test system: PC12 cells (rat pheochromocytoma neurons); assay: MTT cytotoxicity assay, Aβ-induced neurotoxicity in PC12 cells (Example II); assay type: cell-based; details: MTT; compounds at 30 and 50 μM; 72 hours
Method: (§1) PC12 cells (rat pheochromocytoma neurons) from ATCC (Manassas, Va.) were cultured at 37° C. and 5% CO2 in RPMI 1640 medium devoid of glutamine and supplemented with 10% fetal bovine serum and 5% horse serum. Yao Z, Drieu K and Papadopoulos V., The Gingko biloba extract EGb 761 rescues PC12 neuronal cells from β-amyloid-induced cell death by inhibiting the formation of (3-amyloid-derived diffusible neurotoxic ligands, Brain Res, 889, 181-190 (2001). Cells were seeded in 96-well plates (8×10^4 cells/well). After an overnight period of incubation, increasing concentrations of aggregated Aβ (0.1, 1 and 10 μM) were added to the cells in the presence or absence of the indicated concentrations of the SP compounds to be tested. After 72-hours incubation time various parameters, markers of cell viability, were determined. Mouse MA-10 tumor Leydig cells were maintained at 37° C. in DMEM/Ham's F12 (Biofluids, Rockville, Md.) medium supplemented with 5% heat-inactivated fetal calf serum and 2.5% horse serum in 5% CO2. Cells were plated on 96-well plates at the density of 2.5×10^4 cells/well for overnight. The cells were stimulated with the indicated concentrations of the various SP compounds in 0.2 ml/well serum-free medium for 2 hours. The culture medium was collected and tested for progesterone production by radioimmunoassay.
The cellular toxicity of Aβ was assessed using the 3-(4,5-dimethylthiazol-2-yl)-2,5-diphenyl tetrazolium bromide (MTT) assay (Trevigen, Gaithersburg, Md.). Briefly, 10 μl of the MTT solution were added to the cells cultured in 100 μl medium. After an incubation period of 4 hours, 100 μl of detergent were added and cells were incubated overnight at 37° C. Formazan blue formation was quantified at 600 nm and 690 nm using the Victor quantitative detection spectrophotometer (EGG-Wallac, Gaithersburg, Md.) and the results expressed as (DO600-DO690). […] Liu Y and Schubert D, Steroid hormones block amyloid fibril-induced 3-(4,5-dimethylthiazol-2-yl)-2,5-diphenyltetrazolium bromide (MTT) formazan exocytosis: relationship to neurotoxicity, J. Neurochem., 19, 1639-1662 (1998). For that reason, additional cytotoxicity and cell viability assays were used.
Yao et al., J. Neurochem., 83, 1110-1119 (2002); and Yao et al., The Gingko biloba extract EGb 761 rescues PC12 neuronal cells from β-amyloid-induced cell death by inhibiting the formation of β-amyloid-derived diffusible neurotoxic ligands, Brain Res., 889, 181-190 (2001). To stay close to the concentrations of Aβ present in AD brain, 0.1-10 μM concentrations of Aβ were used. The compounds tested for their neuroprotective properties were examined at 30 and 50 μM concentrations (FIGS. 9-15).

[2] = test system: PC12 cells; assay: Membrane potential (CytoLite luminescence) in Aβ-treated PC12 cells; assay type: cell-based, rat
Method: as §1
Cells viability was also assessed using the luminescence-based kit CytoLite™ (Packard BioScience Co.) according to the recommendations of the manufacturer. Briefly, cells were cultured and treated in 96-well plates and after 72-hours incubation time, 25 μl of Activator solution was added to the cells followed by 150 μl of Amplifier solution. Luminescence was measured on a TopCount NXT™ counter (Packard BioSciences Co.) following a 5 minute precount delay.

[3] = test system: NT2 cells; assay: NT2 cell differentiation, phase-contrast morphology; assay type: cell-based, human; details: 25 μM; 3, 6 and 12 days (comparators 6 days)
[4] = test system: PC12 cells, MDA-MB-231 cells or the human glioma cell line U87; assay: Differentiation in other cell lines; assay type: cell-based; details: data not shown
[5] = test system: NT2 cells; assay: BrdU assay, NT2 cell proliferation; assay type: cell-based, human
[6] = test system: differentiated NT2N neuronal cells; assay: MTT assay, viability of differentiated NT2N neuronal cells; assay type: cell-based, human
Text: During CNS development in vivo, cells actively participate in two opposing processes: proliferation and death (Ross, Trends Neurosci., 19, 62 (1996)). In NT2 cells, early programmed cell death (apoptosis) has been associated with the induction of differentiation by RA, it occurs mainly in undifferentiated cells, and it coincides with first detection of the neuronal phenotye (NT2N), i.e., significant apoptotic cell death could be quantified during the third and fourth days of the RA treatment using annexin V labeling as a marker of apoptosis (Guillemain et al., J. Neurosci. Res., 71, 38 (2003)). […] Thus, apoptotic cell death of undifferentiated NT2 cells also occurred during 22R-hydroxycholesterol-induced differentiation.

Compound: CC(C)CC[C@@H](O)[C@@H](C)[C@H]1CC[C@H]2[C@@H]3CC=C4C[C@@H](O)CC[C@]4(C)[C@H]3CC[C@]12C [SP222, 22R-hydroxycholesterol]
- neuroprotection against 0.1 μM Aβ-induced neurotoxicity [1]: protects
- neuroprotection against 1 μM Aβ-induced neurotoxicity [1]: protects
- neuroprotection against 10 μM Aβ-induced neurotoxicity [1]: limited neuroprotection
- protection against 0.1 μM Aβ, membrane potential luminescence ([2]; 0.1 μM Aβ): protected
- protection against the two highest concentrations of Aβ, membrane potential luminescence ([2]; 1.0 and 10.0 μM Aβ): failed to do so
- effect on NT2 cell morphology (differentiation) [3]: induced morphologic changes
- induction of differentiation in PC12, MDA-MB-231 or U87 cells [4]: such an effect was not found
- NT2 cell proliferation at 25 μM ([5]; 25 μM): significantly inhibited
- NT2 cell proliferation at 50 μM ([5]; 50 μM): significantly inhibited
- effect on viability of differentiated NT2N neuronal cells [6]: had no effect
